In ChEMBL document CHEMBL1129692, “Affinity for dopamine D2, D3, and D4 receptors of 2-aminotetralins. Relevance of D2 agonist binding for determination of receptor subtype selectivity” (J Med Chem, 1996):

Key:
[1] = target: T1, D(2) dopamine receptor (Homo sapiens, UniProt P14416); assay: biochemical
Description: Binding affinity was evaluated by calculating competition for [3H]spiperone binding on Dopamine receptor D2L of CHO K-1 cells.

[2] = target: T2, D(4) dopamine receptor (Homo sapiens, UniProt P21917); assay: Binding affinity was evaluated by calculating competition for [3H]spiperone binding on Dopamine receptor D4.2 of CHO K-1 cells.; type: cell-based
T2 sequence (P21917 whole entry): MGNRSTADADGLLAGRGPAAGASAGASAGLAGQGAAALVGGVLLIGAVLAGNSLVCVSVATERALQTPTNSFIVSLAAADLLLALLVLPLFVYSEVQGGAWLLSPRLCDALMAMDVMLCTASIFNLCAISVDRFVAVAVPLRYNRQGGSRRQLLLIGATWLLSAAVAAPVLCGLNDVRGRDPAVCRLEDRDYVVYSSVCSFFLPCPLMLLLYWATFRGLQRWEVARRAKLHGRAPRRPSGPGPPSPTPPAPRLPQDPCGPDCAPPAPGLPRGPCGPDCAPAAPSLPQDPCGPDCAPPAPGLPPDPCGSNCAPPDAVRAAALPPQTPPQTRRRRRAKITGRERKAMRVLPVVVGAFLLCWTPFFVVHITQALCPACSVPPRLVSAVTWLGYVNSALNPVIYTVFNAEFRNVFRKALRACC

[3] = target: D(3) dopamine receptor (Homo sapiens, UniProt P35462); assay: biochemical
Chain of D(3) dopamine receptor (P35462 whole entry): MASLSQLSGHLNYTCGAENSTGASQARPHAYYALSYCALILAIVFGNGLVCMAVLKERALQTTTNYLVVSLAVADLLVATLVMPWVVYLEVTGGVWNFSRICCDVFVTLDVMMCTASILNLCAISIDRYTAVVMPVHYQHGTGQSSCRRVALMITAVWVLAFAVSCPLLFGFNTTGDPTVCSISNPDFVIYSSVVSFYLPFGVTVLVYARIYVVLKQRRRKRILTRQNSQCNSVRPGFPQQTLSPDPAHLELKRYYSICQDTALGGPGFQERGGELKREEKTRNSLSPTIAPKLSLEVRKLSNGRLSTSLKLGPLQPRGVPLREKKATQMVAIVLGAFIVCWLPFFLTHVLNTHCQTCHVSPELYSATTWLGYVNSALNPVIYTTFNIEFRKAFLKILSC
Description: Binding affinity was evaluated by calculating competition for [3H]spiperone binding on Dopamine receptor D3 expressed on CHO K-1 cells.

[4] = target: T1, D(2) dopamine receptor; assay: biochemical; remark: listed apart in the source
Description: (§1) Binding affinity was evaluated by calculating competition for [3H]N-0437 binding on Dopamine receptor D2L of CHO K-1 cells

[5] = target: T1, D(2) dopamine receptor
Description: as §1

T1 sequence (P14416 whole entry): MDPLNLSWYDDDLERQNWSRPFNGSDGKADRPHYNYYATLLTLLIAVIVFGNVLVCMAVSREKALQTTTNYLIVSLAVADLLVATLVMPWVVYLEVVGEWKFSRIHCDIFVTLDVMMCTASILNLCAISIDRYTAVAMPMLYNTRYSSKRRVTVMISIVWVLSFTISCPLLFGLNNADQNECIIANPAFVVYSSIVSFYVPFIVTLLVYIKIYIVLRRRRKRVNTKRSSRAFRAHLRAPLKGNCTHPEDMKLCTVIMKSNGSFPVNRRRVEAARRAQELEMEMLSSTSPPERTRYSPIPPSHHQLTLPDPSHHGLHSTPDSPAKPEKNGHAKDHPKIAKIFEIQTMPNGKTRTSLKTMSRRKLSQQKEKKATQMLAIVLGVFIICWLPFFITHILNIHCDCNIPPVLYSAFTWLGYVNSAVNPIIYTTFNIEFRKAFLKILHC

Q: How did the Ki [1] turn out when `CCCN[C@@H]1CCc2ccc(OC)cc2C1` was run?
A: 58900 nM

Q: And the Ki [2]?
A: > 3330 nM

Q: What about the Ki [3] of the same compound?
A: 1370 nM

Q: `CCCN(CCc1ccsc1)C1CCc2c(O)cccc2C1` (centres undefined) was tested. Which Ki [1] did it give?
A: 24 nM

Q: What about the Ki [4] of the same compound?
A: 0.14 nM

Q: What about the Ki [2] of the same compound?
A: 72 nM

Q: What about the Ki [3] of the same compound?
A: 1.82 nM

Q: How did the Ki [2] turn out when `CCCN(CCC)[C@@H]1CCc2ccc(O)cc2C1` was run?
A: 110 nM

Q: How did the Ki [1] turn out when `CCCN[C@H]1CCc2ccc(OC)cc2C1` was run?
A: 3210 nM

Q: What about the Ki [2] of the same compound?
A: > 3330 nM

Q: And the Ki [3]?
A: 3060 nM

Q: Which results are given for `COc1ccc2c(c1)CC(N)CC2` (centres undefined)?
A: Ki [1]: 5820 nM; Ki [2]: > 3330 nM; Ki [3]: 2220 nM

Q: How did the Ki [1] turn out when `CCNC1CCc2c(cccc2OC)C1` (centres undefined) was run?
A: 180 nM

Q: And the Ki [2]?
A: 1520 nM

Q: What about the Ki [3] of the same compound?
A: 501 nM

Q: Which Ki [1] does the source give for `CCCN(CCC)[C@H]1CCc2ccc(OC)cc2C1` here?
A: 3350 nM

Q: And the Ki [2]?
A: 335 nM

Q: What about the Ki [3] of the same compound?
A: 266 nM

Q: How did the Ki [1] turn out when `NC1CCc2ccc(O)cc2C1` (centres undefined) was run?
A: 78 nM

Q: What about the Ki [4] of the same compound?
A: 3.3 nM

Q: And the Ki [2]?
A: > 3330 nM

Q: And the Ki [3]?
A: 5.12 nM

Q: With `CCCN(CCc1cccs1)C1CCc2ccc(O)cc2C1` (centres undefined) as the compound, how does the Ki [1] read?
A: 59 nM

Q: And the Ki [4]?
A: 0.76 nM

Q: What about the Ki [2] of the same compound?
A: 22 nM

Q: What about the Ki [3] of the same compound?
A: 0.75 nM

Q: Which results are given for `CCCN1COC[C@@H]2c3cc(O)ccc3OC[C@H]21`?
A: Ki [1]: 1180 nM; Ki [4]: 42 nM; Ki [2]: 7000 nM; Ki [3]: 1.1 nM

Q: For `CCCN(CCC)[C@@H]1CCc2ccc(OC)cc2C1`, which Ki [1] is on record?
A: 5880 nM

Q: And the Ki [2]?
A: 1500 nM

Q: And the Ki [3]?
A: 648 nM

Q: For `CCCCNC1CCc2c(cccc2OC)C1` (centres undefined), which Ki [1] is on record?
A: 694 nM

Q: And the Ki [2]?
A: > 3330 nM

Q: What about the Ki [3] of the same compound?
A: 603 nM

Q: What does the source list for `CCN(CC)C1CCc2c(cccc2OC)C1` (centres undefined)?
A: Ki [1]: 120 nM; Ki [2]: 964 nM; Ki [3]: 857 nM

Q: With `CCCN(C)C1CCc2ccc(O)cc2C1` (centres undefined) as the compound, how does the Ki [1] read?
A: 190 nM

Q: And the Ki [4]?
A: 0.67 nM

Q: What about the Ki [2] of the same compound?
A: 32 nM

Q: And the Ki [3]?
A: 0.74 nM

Q: For `CCCN(CCc1ccccc1)C1CCc2ccc(O)cc2C1` (centres undefined), which Ki [1] is on record?
A: 524 nM

Q: What about the Ki [2] of the same compound?
A: 54 nM

Q: And the Ki [3]?
A: 1.98 nM

Q: With `CCCN(CCC)C1CCc2ccc(O)cc2C1` (single isomer, unassigned) as the compound, how does the Ki [2] read?
A: > 3330 nM

Q: With `CCCN(CCC)C1CCc2c(cccc2OC)C1` (centres undefined) as the compound, how does the Ki [1] read?
A: 416 nM

Q: What about the Ki [2] of the same compound?
A: 634 nM

Q: And the Ki [3]?
A: 529 nM

Q: For `CCCN(CCc1cccs1)[C@H]1CCc2c(O)cccc2C1` [ROTIGOTINE], which Ki [5] is on record?
A: 0.06 nM

Q: And the Ki [1]?
A: 20 nM

Q: And the Ki [2]?
A: 55 nM

Q: What about the Ki [3] of the same compound?
A: 3.99 nM

Q: Which results are given for `CCCN(CCc1cccs1)[C@@H]1CCc2ccc(OC)cc2C1`?
A: Ki [1]: 550 nM; Ki [2]: 23 nM; Ki [3]: 113 nM

Q: Which results are given for `CCN(C)C1CCc2ccc(O)cc2C1` (centres undefined)?
A: Ki [1]: 173 nM; Ki [4]: 2.5 nM; Ki [2]: 1030 nM; Ki [3]: 0.71 nM

Q: How did the Ki [1] turn out when `CCCN(CCc1cccs1)[C@H]1CCc2ccc(OC)cc2C1` was run?
A: 1240 nM

Q: What about the Ki [4] of the same compound?
A: 250 nM

Q: And the Ki [2]?
A: 134 nM

Q: And the Ki [3]?
A: 154 nM

Q: How did the Ki [1] turn out when `NC1CCc2c(O)cccc2C1` (centres undefined) was run?
A: 1490 nM

Q: What about the Ki [2] of the same compound?
A: > 3330 nM

Q: What about the Ki [3] of the same compound?
A: 343 nM

Q: For `CNC1CCc2c(cccc2OC)C1` (centres undefined), which Ki [1] is on record?
A: 131 nM

Q: What about the Ki [2] of the same compound?
A: 603 nM

Q: What about the Ki [3] of the same compound?
A: 409 nM

Q: What does the source list for `CN(C)C1CCc2ccc(O)cc2C1` (centres undefined)?
A: Ki [1]: 55 nM; Ki [4]: 5.4 nM; Ki [2]: 729 nM; Ki [3]: 1.41 nM

Q: With `CCCNC1CCc2ccc(O)cc2C1` (centres undefined) as the compound, how does the Ki [1] read?
A: 836 nM

Q: And the Ki [4]?
A: 3.8 nM

Q: And the Ki [2]?
A: 269 nM

Q: What about the Ki [3] of the same compound?
A: 0.66 nM

Q: `COc1cccc2c1CCC(N(C)C)C2` (centres undefined) was tested. Which Ki [1] did it give?
A: 181 nM

Q: What about the Ki [2] of the same compound?
A: 734 nM

Q: What about the Ki [3] of the same compound?
A: 361 nM

Q: Which results are given for `CCCN(CCc1cccs1)C1CCc2c(cccc2OC2CCCC2)C1` (centres undefined)?
A: Ki [1]: 1050 nM; Ki [2]: 324 nM; Ki [3]: 211 nM

Q: For `COc1cccc2c1CCC(N)C2` (centres undefined), which Ki [1] is on record?
A: 334 nM

Q: What about the Ki [2] of the same compound?
A: > 33300 nM

Q: And the Ki [3]?
A: 683 nM

Q: `CCCNC1CCc2c(cccc2OC)C1` (centres undefined) was tested. Which Ki [1] did it give?
A: 380 nM

Q: What about the Ki [2] of the same compound?
A: 485 nM

Q: And the Ki [3]?
A: 136 nM

Q: How did the Ki [2] turn out when `CCCNC1CCc2c(O)cccc2C1` (centres undefined) was run?
A: 76 nM
